Laboratory results: ChEMBL document CHEMBL1926648, “Synthesis and biological activity of dihydroimidazole and 3,4-dihydrobenzo[4,5]imidazo[1,2-a][1,3,5]triazins” (2012)

How the values were obtained:
Assay type in all cases: functional
Settings in all cases: read-out: IZ
Escherichia coli [1] = test: Antibacterial activity against Escherichia coli at 30000 ppm after 24 hrs by agar diffusion method
Escherichia coli [2] = test: Antibacterial activity against Escherichia coli at 50000 ppm after 24 hrs by agar diffusion method
Staphylococcus aureus [3] = test: Antibacterial activity against Staphylococcus aureus at 30000 ppm after 24 hrs by agar diffusion method
Bacillus subtilis [4] = test: Antibacterial activity against Bacillus subtilis at 10000 ppm after 24 hrs by agar diffusion method
Bacillus cereus [5] = test: Antibacterial activity against Bacillus cereus at 50000 ppm after 24 hrs by agar diffusion method
Kocuria rosea [6] = test: Antibacterial activity against Micrococcus roseus at 50000 ppm after 24 hrs by agar diffusion method
Escherichia coli [7] = test: Antibacterial activity against Escherichia coli at 10000 ppm after 24 hrs by agar diffusion method
Staphylococcus aureus [8] = test: Antibacterial activity against Staphylococcus aureus at 50000 ppm after 24 hrs by agar diffusion method
Bacillus subtilis [9] = test: Antibacterial activity against Bacillus subtilis at 50000 ppm after 24 hrs by agar diffusion method
Bacillus subtilis [10] = test: Antibacterial activity against Bacillus subtilis at 30000 ppm after 24 hrs by agar diffusion method
Kocuria rosea [11] = test: Antibacterial activity against Micrococcus roseus at 30000 ppm after 24 hrs by agar diffusion method
Micrococcus luteus [12] = test: Antibacterial activity against Micrococcus luteus at 30000 ppm after 24 hrs by agar diffusion method
Pseudomonas aeruginosa [13] = test: Antibacterial activity against Pseudomonas aeruginosa at 50000 ppm after 24 hrs by agar diffusion method
Staphylococcus aureus [14] = test: Antibacterial activity against Staphylococcus aureus at 10000 ppm after 24 hrs by agar diffusion method
Pseudomonas aeruginosa [15] = test: Antibacterial activity against Pseudomonas aeruginosa at 10000 ppm after 24 hrs by agar diffusion method
Micrococcus luteus [16] = test: Antibacterial activity against Micrococcus luteus at 50000 ppm after 24 hrs by agar diffusion method
Pseudomonas aeruginosa [17] = test: Antibacterial activity against Pseudomonas aeruginosa at 30000 ppm after 24 hrs by agar diffusion method
Bacillus cereus [18] = test: Antibacterial activity against Bacillus cereus at 30000 ppm after 24 hrs by agar diffusion method
Bacillus cereus [19] = test: Antibacterial activity against Bacillus cereus at 10000 ppm after 24 hrs by agar diffusion method
Kocuria rosea [20] = test: Antibacterial activity against Micrococcus roseus at 10000 ppm after 24 hrs by agar diffusion method
Micrococcus luteus [21] = test: Antibacterial activity against Micrococcus luteus at 10000 ppm after 24 hrs by agar diffusion method

With `CC1(C)[C@@H]2CC[C@@]1(C)C1(C2)NC(N)=Nc2nc3ccccc3n21` (some centres not stated) the zone of inhibition at 30000 ppm (Escherichia coli [1]) was 9 mm, the zone of inhibition at 50000 ppm (Escherichia coli [2]) was 12 mm and the zone of inhibition at 30000 ppm (Staphylococcus aureus [3]) was 3 mm. For the same compound, the zone of inhibition at 10000 ppm (Bacillus subtilis [4]) was 3 mm, the zone of inhibition at 50000 ppm (Bacillus cereus [5]) was 4 mm and the zone of inhibition at 50000 ppm (Kocuria rosea [6]) was 5 mm. It also gave a zone of inhibition at 10000 ppm (Escherichia coli [7]) of 4 mm, a zone of inhibition at 50000 ppm (Staphylococcus aureus [8]) of 8 mm and a zone of inhibition at 50000 ppm (Bacillus subtilis [9]) of 6 mm. It also gave a zone of inhibition at 30000 ppm (Bacillus subtilis [10]) of 5 mm and a zone of inhibition at 30000 ppm (Kocuria rosea [11]) of 2 mm.

`Oc1c[nH]/c(=N/c2nc3ccccc3[nH]2)[nH]1` showed a zone of inhibition at 30000 ppm (Escherichia coli [1]) of 8 mm, a zone of inhibition at 50000 ppm (Escherichia coli [2]) of 13 mm and a zone of inhibition at 30000 ppm (Staphylococcus aureus [3]) of 7 mm. It also gave a zone of inhibition at 30000 ppm (Micrococcus luteus [12]) of 5 mm, a zone of inhibition at 50000 ppm (Pseudomonas aeruginosa [13]) of 11 mm and a zone of inhibition at 10000 ppm (Staphylococcus aureus [14]) of 2 mm. The zone of inhibition at 10000 ppm (Pseudomonas aeruginosa [15]) was 5 mm, the zone of inhibition at 50000 ppm (Bacillus cereus [5]) was 10 mm and the zone of inhibition at 50000 ppm (Kocuria rosea [6]) was 8 mm. It also gave a zone of inhibition at 10000 ppm (Escherichia coli [7]) of 6 mm, a zone of inhibition at 50000 ppm (Micrococcus luteus [16]) of 9 mm and a zone of inhibition at 50000 ppm (Staphylococcus aureus [8]) of 13 mm. It also gave a zone of inhibition at 30000 ppm (Pseudomonas aeruginosa [17]) of 8 mm, a zone of inhibition at 50000 ppm (Bacillus subtilis [9]) of 7 mm and a zone of inhibition at 30000 ppm (Kocuria rosea [11]) of 6 mm. It also gave a zone of inhibition at 30000 ppm (Bacillus cereus [18]) of 5 mm.

`Cc1c[nH]/c(=N/c2nc3ccccc3[nH]2)[nH]1` was tested, and the zone of inhibition at 30000 ppm (Escherichia coli [1]) was 4 mm, the zone of inhibition at 50000 ppm (Escherichia coli [2]) was 8 mm and the zone of inhibition at 10000 ppm (Bacillus cereus [19]) was 6 mm. It also gave a zone of inhibition at 30000 ppm (Staphylococcus aureus [3]) of 3 mm, a zone of inhibition at 30000 ppm (Micrococcus luteus [12]) of 7 mm and a zone of inhibition at 50000 ppm (Pseudomonas aeruginosa [13]) of 7 mm. For the same compound, the zone of inhibition at 10000 ppm (Bacillus subtilis [4]) was 10 mm, the zone of inhibition at 50000 ppm (Bacillus cereus [5]) was 12 mm and the zone of inhibition at 50000 ppm (Kocuria rosea [6]) was 9 mm. For the same compound, the zone of inhibition at 10000 ppm (Escherichia coli [7]) was 1 mm, the zone of inhibition at 10000 ppm (Kocuria rosea [20]) was 5 mm and the zone of inhibition at 50000 ppm (Micrococcus luteus [16]) was 8 mm. The zone of inhibition at 50000 ppm (Staphylococcus aureus [8]) was 6 mm, the zone of inhibition at 30000 ppm (Pseudomonas aeruginosa [17]) was 4 mm and the zone of inhibition at 10000 ppm (Micrococcus luteus [21]) was 6 mm. For the same compound, the zone of inhibition at 50000 ppm (Bacillus subtilis [9]) was 15 mm, the zone of inhibition at 30000 ppm (Bacillus subtilis [10]) was 13 mm and the zone of inhibition at 30000 ppm (Kocuria rosea [11]) was 7 mm. For the same compound, the zone of inhibition at 30000 ppm (Bacillus cereus [18]) was 9 mm.

`NC1=NC2(CCCCC2)n2c(nc3ccccc32)N1` was tested, and the zone of inhibition at 30000 ppm (Escherichia coli [1]) was 15 mm, the zone of inhibition at 50000 ppm (Escherichia coli [2]) was 18 mm and the zone of inhibition at 30000 ppm (Micrococcus luteus [12]) was 7 mm. For the same compound, the zone of inhibition at 50000 ppm (Pseudomonas aeruginosa [13]) was 5 mm, the zone of inhibition at 10000 ppm (Bacillus subtilis [4]) was 7 mm and the zone of inhibition at 50000 ppm (Bacillus cereus [5]) was 9 mm. The zone of inhibition at 50000 ppm (Kocuria rosea [6]) was 5 mm, the zone of inhibition at 10000 ppm (Escherichia coli [7]) was 12 mm and the zone of inhibition at 50000 ppm (Micrococcus luteus [16]) was 12 mm. The zone of inhibition at 50000 ppm (Staphylococcus aureus [8]) was 5 mm, the zone of inhibition at 30000 ppm (Pseudomonas aeruginosa [17]) was 4 mm and the zone of inhibition at 10000 ppm (Micrococcus luteus [21]) was 7 mm. For the same compound, the zone of inhibition at 50000 ppm (Bacillus subtilis [9]) was 13 mm, the zone of inhibition at 30000 ppm (Bacillus subtilis [10]) was 11 mm and the zone of inhibition at 30000 ppm (Bacillus cereus [18]) was 4 mm.

Compound `Clc1c[nH]/c(=N/c2nc3ccccc3[nH]2)[nH]1` has a zone of inhibition at 30000 ppm (Escherichia coli [1]) of 13 mm, a zone of inhibition at 50000 ppm (Escherichia coli [2]) of 18 mm and a zone of inhibition at 30000 ppm (Staphylococcus aureus [3]) of 5 mm. It also gave a zone of inhibition at 50000 ppm (Pseudomonas aeruginosa [13]) of 2 mm, a zone of inhibition at 10000 ppm (Bacillus subtilis [4]) of 6 mm and a zone of inhibition at 50000 ppm (Bacillus cereus [5]) of 6 mm. For the same compound, the zone of inhibition at 50000 ppm (Kocuria rosea [6]) was 8 mm, the zone of inhibition at 10000 ppm (Escherichia coli [7]) was 9 mm and the zone of inhibition at 50000 ppm (Micrococcus luteus [16]) was 4 mm. For the same compound, the zone of inhibition at 50000 ppm (Staphylococcus aureus [8]) was 9 mm, the zone of inhibition at 50000 ppm (Bacillus subtilis [9]) was 14 mm and the zone of inhibition at 30000 ppm (Bacillus subtilis [10]) was 10 mm. The zone of inhibition at 30000 ppm (Kocuria rosea [11]) was 3 mm.

In the case of `c1ccc(-c2c[nH]/c(=N/c3nc4ccccc4[nH]3)[nH]2)cc1`, the zone of inhibition at 30000 ppm (Escherichia coli [1]) is reported as 6 mm, the zone of inhibition at 50000 ppm (Escherichia coli [2]) is reported as 8 mm and the zone of inhibition at 10000 ppm (Bacillus cereus [19]) is reported as 6 mm. The zone of inhibition at 30000 ppm (Staphylococcus aureus [3]) was 5 mm, the zone of inhibition at 50000 ppm (Pseudomonas aeruginosa [13]) was 11 mm and the zone of inhibition at 10000 ppm (Bacillus subtilis [4]) was 9 mm. For the same compound, the zone of inhibition at 10000 ppm (Pseudomonas aeruginosa [15]) was 4 mm, the zone of inhibition at 50000 ppm (Bacillus cereus [5]) was 9 mm and the zone of inhibition at 50000 ppm (Kocuria rosea [6]) was 10 mm. It also gave a zone of inhibition at 10000 ppm (Escherichia coli [7]) of 4 mm, a zone of inhibition at 10000 ppm (Kocuria rosea [20]) of 3 mm and a zone of inhibition at 50000 ppm (Micrococcus luteus [16]) of 3 mm. It also gave a zone of inhibition at 50000 ppm (Staphylococcus aureus [8]) of 9 mm, a zone of inhibition at 30000 ppm (Pseudomonas aeruginosa [17]) of 6 mm and a zone of inhibition at 50000 ppm (Bacillus subtilis [9]) of 14 mm. The zone of inhibition at 30000 ppm (Bacillus subtilis [10]) was 11 mm, the zone of inhibition at 30000 ppm (Kocuria rosea [11]) was 8 mm and the zone of inhibition at 30000 ppm (Bacillus cereus [18]) was 8 mm.
